Bridges are numbered along the chain shown (N, C = ends). Primed or numbered codes have the meaning given here. Where no end group is shown, it is not given here. [ ]: non-standard residue; d: D form. The star is where a group is joined. DOTA = O=C(O)CN1CCN(CC(=O)O)CCN(CC(=O)*)CCN(CC(=O)O)CC1; Biotin = O=C1N[C@H]2[C@H](CS[C@H]2CCCCC(=O)*)N1; Lys(Me2) = CN(C)CCCC[C@H](N)C(=O)O; PEG4 = NCCOCCOCCOCCOCCC(=O)O; PEG4′ = not defined here
Assays:
[1] = system: opossum kidney proximal tubule cells; assay: OK-PTC uptake assay of miniprotein conjugates in presence of scaffold A decoys; assay type: cell-based; conditions: compound 20 μM; for % Uptake reduction in the presence of a decoy C118: 20-fold molar excess of decoy C118; for % Uptake reduction in the presence of a decoy C119: 20-fold molar excess of decoy C119; for % Uptake reduction in the presence of a decoy C120: 20-fold molar excess of decoy C120
Protocol: This Example describes reduction of uptake of exemplary truncated and constrained B7-H3 miniprotein conjugates (C272, C308, C234, C394, C250, and C228) when combined with exemplary scaffold A decoys (C118, C119 and C120) as compared to no decoy. Uptake of compounds was evaluated in opossum kidney proximal tubule cells (as described in Example 5). Here, cells were treated with a compound in the presence or absence of a 20-fold molar excess of exemplary scaffold A decoys, C118, C119, and C120. Results depicting uptake of six exemplary B7-H3-targeting compounds, C272, C308, C234, C394, C250, and C228, in OK-PTC cells in the presence and absence of exemplary decoys C118, C119, and C120 (scaffold A decoys) are shown in Table 13. The B7-H3-targeting compounds were used at 20 μM and the decoys used at a 20-fold (with C272, C308, C234, C394, and C250) and 10-fold (with C228) molar excess.

[2] = Thermal stability (Tm) of B7-H3 miniprotein conjugates; assay type: physicochemical
Protocol: Thermal stability was assessed for several exemplary miniprotein conjugates and reported as Tm (e.g., see Table 7A).
As compared to unconstrained sequences (e.g., as in Table 2A and shown for C211 in Table 7A), those with disulfide bonds (e.g., as in Table 2C and shown for C234, C275, C294, and C309 in Table 7A) were more thermally stable (see Table 7A), and exemplary compounds with two disulfide bridges (C234, C275, and C309) were stable at higher temperatures than an exemplary compound with one disulfide bridge (C294).

[3] = system: >6,500 different human proteins; assay: Off-target binding, cell microarray platform (Retrogenix Assay) in HEK293 cells; conditions: biotin-labeled molecules
Protocol: To evaluate potential off-target binding, eight biotin-labeled molecules were tested in a cell microarray platform (Charles River Lab, Retrogenix Assay) having >6,500 different human proteins spanning diverse functions and subcellular locations.
Initially, two pools of molecules were tested. Pool #1 consisted of C298, C300, C302, C304, and pool #2 consisted of C306, C308, C310, and C312 at 2 μg/mL for each molecule. To perform this assay, HEK293 cells were plated on a dish and localized spots of cells were transiently over-expressed with a cDNA encoding for one of the >6,500 targets. Included in this library were two isoforms of CD276 (B7-H3) and B7-H3 related proteins (B7-1, B7-2, B7-H1/PD-L1, and B7-H2). The molecule pools were incubated on the fixed, over-expressing cell microarrays (n=2 per protein), and binding was visualized using Alexa Fluor 647 streptavidin fluorescence. All transfection efficiencies exceeded minimum thresholds for the microarray expression targets. Preliminary interactions identified from pooled results were re-spotted in duplicates, and each of the eight compounds were tested individually (n=2) at 2 μg/mL and/or in dose response against these targets as described above to validate the interactions.
All positive control interactions were strong and passed quality control. Specific interactions observed (median SNR≥1) confirmed on-target B7-H3 binding in two different isoforms for each of the eight test molecules. These interactions with the primary target occurred after fixation and in live cells (absence of fixation). No significant additional interactions were confirmed for any test molecules outside of B7-H3, indicating high specificity for the primary target (data not shown).

[4] = In vitro metabolic stability, plasma; assay type: in vitro ADME; parameters: unit not given here; conditions: 37° C.
Protocol: (§1) Exemplary miniprotein conjugates were spiked into biological matrices at initial concentration between 1-2 μM. Tested matrices were varied by species (mouse, rat, human) and type (plasma, serum, and kidney brush border membrane preparations tested each from 0.625-100 μg/mL protein content). Tested conditions were incubated with TAs at 37° C. for 4 hours. At collection points of 0, 15, 30, 60, 120, 240 minutes, 50 μL of each condition were quenched by organic solvent (methanol or acetonitrile) or the addition of 4% phosphoric acid solution. Fractions of each quenched timepoint were subsequently assayed for parent TA concentration by high resolution LC-MS. Percent-parent-remaining-time plots were constructed from the ratio of each given time collection to the time-zero parent TA. Percent-parent-remaining in mouse serum and plasma for exemplary miniproteins are recorded in Table 8.

[5] = In vitro metabolic stability, kidney brush border membrane preparations (KBBM); assay type: in vitro ADME; parameters: unit not given here; conditions: mouse kidney brush border membrane preparation, 37° C.
Protocol: as §1

[6] = In vitro metabolic stability, plasma, mouse; assay type: in vitro ADME; conditions: 37° C.
Source text: (§2) This Example describes in vitro metabolic stability of exemplary B7-H3 miniprotein conjugates.
(§3) Pharmacokinetic assessments are described in Example 18.

[7] = In vitro metabolic stability, kidney brush border membrane (KBBM), mouse; assay type: in vitro ADME; conditions: 37° C.
Source text: as §2, §3

[8] = system: opossum kidney proximal tubule cells; assay: Proximal tubule epithelial cell (OK cell) uptake assay relative to control C4; assay type: cell-based
Protocol: Inhibition constant (Ki) of each conjugate was measured using DELFIA as described herein.

Compound: CC[C@H](C)[C@@H]1NC(=O)[C@H](Cc2ccccc2)NC(=O)[C@H](C)NC(=O)[C@H](CCCCN(C)C)NC(=O)[C@H]([C@@H](C)CC)NC(=O)[C@H](CCC(N)=O)NC(=O)[C@H](C)NC(=O)[C@H](Cc2ccc(O)cc2)NC(=O)[C@H]([C@@H](C)O)NC(=O)[C@H](CC(C)C)NC(=O)[C@@H]2CSSC[C@@H](C(=O)N[C@@H](CO)C(N)=O)NC(=O)[C@H](CC(C)C)NC(=O)[C@H](CCC(=O)O)NC(=O)[C@H](CCCCN)NC(=O)[C@H](C)NC(=O)[C@H](CCC(=O)O)NC(=O)[C@H](CO)NC(=O)[C@H](CC(C)C)NC(=O)[C@H]([C@@H](C)CC)NC(=O)[C@H](CCC(=O)O)NC(=O)[C@H](CO)NC(=O)[C@H](CO)NC(=O)[C@H](CCC(N)=O)NC(=O)[C@H](CSSC[C@H](NC(=O)CCOCCOCCOCCOCCNC(=O)CCCC[C@@H]3SC[C@@H]4NC(=O)N[C@@H]43)C(=O)N[C@@H](C)C(=O)N[C@@H](CCCC[N+](C)(C)C)C(=O)N[C@@H](CCC(=O)O)C(=O)N[C@@H](CCCCN)C(=O)N[C@@H]([C@@H](C)CC)C(=O)N[C@@H](C)C(=O)N[C@@H](C)C(=O)N[C@@H](CC(C)C)C(=O)N[C@@H](CO)C(=O)N[C@@H](CCC(=O)O)C(=O)N[C@@H]([C@@H](C)CC)C(=O)N[C@@H]([C@@H](C)CC)C(=O)N[C@@H](Cc3c[nH]c4ccccc34)C(=O)N[C@@H](CC(C)C)C(=O)N3CCC[C@H]3C(=O)N2)NC(=O)[C@@H]2CCCN2C(=O)[C@H](CC(=O)O)NC(=O)[C@H](CC(=O)O)NC(=O)[C@H](CC(N)=O)NC(=O)[C@H](CC(C)C)NC(=O)[C@H](C)NC(=O)[C@H](C)NC1=O [Compound C234]
- % Uptake reduction in the presence of a decoy C118 [1]: 86.4%
- % Uptake reduction in the presence of a decoy C119 [1]: 96.2%
- % Uptake reduction in the presence of a decoy C120 [1]: 96.9%
- Tm (° C.) [2]: ~≥75 °C

Compound: CC[C@H](C)[C@@H]1NC(=O)[C@H](CCCCN)NC(=O)[C@H](CCC(=O)O)NC(=O)[C@H](CCCC[N+](C)(C)C)NC(=O)[C@H](C)NC(=O)[C@@H](NC(=O)CCOCCOCCOCCOCCNC(=O)CCCC[C@@H]2SC[C@@H]3NC(=O)N[C@@H]32)CSSC[C@@H]2NC(=O)[C@@H]3CCCN3C(=O)[C@H](CC(=O)O)NC(=O)[C@H](CC(=O)O)NC(=O)[C@H](CC(N)=O)NC(=O)[C@H](CC(C)C)NC(=O)[C@H](C)NC(=O)[C@H](CCCCNC)NC(=O)[C@H]([C@@H](C)CC)NC(=O)[C@H](Cc3ccccc3)NC(=O)[C@H](C)NC(=O)[C@H](CCCCNC)NC(=O)[C@H]([C@@H](C)CC)NC(=O)[C@H](CCC(N)=O)NC(=O)[C@H](C)NC(=O)[C@H](Cc3ccc(O)cc3)NC(=O)[C@H]([C@@H](C)O)NC(=O)[C@H](CC(C)C)NC(=O)[C@H](CSSC[C@@H](C(=O)N[C@@H](CO)C(N)=O)NC(=O)[C@H](CC(C)C)NC(=O)[C@H](CCC(=O)O)NC(=O)[C@H](CCCCNC)NC(=O)[C@H](C)NC(=O)[C@H](CCC(=O)O)NC(=O)[C@H](CO)NC(=O)[C@H](CC(C)C)NC(=O)[C@H]([C@@H](C)CC)NC(=O)[C@H](CCC(=O)O)NC(=O)[C@H](CO)NC(=O)[C@H](CO)NC(=O)[C@H](CCC(N)=O)NC2=O)NC(=O)[C@@H]2CCCN2C(=O)[C@H](CC(C)C)NC(=O)[C@H](Cc2c[nH]c3ccccc23)NC(=O)[C@H]([C@@H](C)CC)NC(=O)[C@H]([C@@H](C)CC)NC(=O)[C@H](CCC(=O)O)NC(=O)[C@H](CO)NC(=O)[C@H](CC(C)C)NC(=O)[C@H](C)NC(=O)[C@H](C)NC1=O [Compound C306]
- background binding to untransfected HEK293 cells [3]: low-background binding
- In vitro Stability (mouse) - Plasma [4]: >12
- In vitro Stability (mouse) - KBBM [5]: >12

Compound: CC[C@H](C)[C@@H]1NC(=O)[C@H](Cc2ccccc2)NC(=O)[C@H](C)NC(=O)[C@H](CCCCNC)NC(=O)[C@H]([C@@H](C)CC)NC(=O)[C@H](CCC(N)=O)NC(=O)[C@H](C)NC(=O)[C@H](Cc2ccc(O)cc2)NC(=O)[C@H]([C@@H](C)O)NC(=O)[C@H](CC(C)C)NC(=O)[C@@H]2CSSC[C@@H](C(=O)N[C@@H](CO)C(N)=O)NC(=O)[C@H](CC(C)C)NC(=O)[C@H](CCC(=O)O)NC(=O)[C@H](CCCCNC)NC(=O)[C@H](C)NC(=O)[C@H](CCC(=O)O)NC(=O)[C@H](CO)NC(=O)[C@H](CC(C)C)NC(=O)[C@H]([C@@H](C)CC)NC(=O)[C@H](CCC(=O)O)NC(=O)[C@H](CO)NC(=O)[C@H](CO)NC(=O)[C@H](CCC(N)=O)NC(=O)[C@H](CSSC[C@H](NC(=O)CCOCCOCCOCCOCCNC(=O)CCCC[C@@H]3SC[C@@H]4NC(=O)N[C@@H]43)C(=O)N[C@@H](C)C(=O)N[C@@H](CCCC[N+](C)(C)C)C(=O)N[C@@H](CCC(=O)O)C(=O)N[C@@H](CCCCN)C(=O)N[C@@H]([C@@H](C)CC)C(=O)N[C@@H](C)C(=O)N[C@@H](C)C(=O)N[C@@H](CC(C)C)C(=O)N[C@@H](CO)C(=O)N[C@@H](CCC(=O)O)C(=O)N[C@@H]([C@@H](C)CC)C(=O)N[C@@H]([C@@H](C)CC)C(=O)N[C@@H](Cc3c[nH]c4ccccc34)C(=O)N[C@@H](CC(C)C)C(=O)N3CCC[C@H]3C(=O)N2)NC(=O)[C@@H]2CCCN2C(=O)[C@H](CC(=O)O)NC(=O)[C@H](CCCCNC)NC(=O)[C@H](CC(N)=O)NC(=O)[C@H](CC(C)C)NC(=O)[C@H](CCCCNC)NC(=O)[C@H](C)NC1=O [Compound C308]
- background binding to untransfected HEK293 cells [3]: low-background binding
- % Uptake reduction in the presence of a decoy C118 [1]: 107.9%
- % Uptake reduction in the presence of a decoy C119 [1]: 108.6%
- % Uptake reduction in the presence of a decoy C120 [1]: 104.5%

Compound: C41 ({DOTA-PEG4′}-AEALYAQEKIAALSEIIWLPNLTHGQIMAFIAALNNDPSQSSELLSEAEQLNDSQAPG-OH; also: In complexed by DOTA) [Compound C41]
- In vitro Stability (mouse) - Plasma [6]: >12
- In vitro Stability (mouse) - KBBM [7]: >12

Compound: C44: B7-H3 miniprotein test article of Table 5 ({DOTA-PEG4′}-YAQEKIAALSEIIWLPNLTHGQIMAFIAALNNDPSQSSELLSEALALNDSQAPG; also: In complexed by DOTA) [Compound C44]
- In vitro Stability (mouse) - Plasma [6]: >12
- In vitro Stability (mouse) - KBBM [7]: >12

Compound: {Biotin-PEG4}-CAREKIAALSEIIWLPCLTYAQIKAFIAALNDDPCQSSEILSEAKELCS-NH2 (disulfide 1-35, 17-48) [Compound C284]
- % Uptake of C4 [8]: 56.6%

Compound: {Biotin-PEG4}-CAREKIAALSEIIWLPCLTYAQILAFIAALNDDPCQSSEILSEAKELCS-NH2 (disulfide 1-35, 17-48) [Compound C286]
- % Uptake of C4 [8]: 26%

Compound: {Biotin-PEG4}-CAREKIAALSEIIWLPCLTYAQIQAFIAALNDDPCQSSEILSEAKELCS-NH2 (disulfide 1-35, 17-48) [Compound C290]
- % Uptake of C4 [8]: 17%

Compound: {Biotin-PEG4}-CAREKIAALSEIIWLPCLTYAQIVAFIAALNDDPCQSSEILSEAKELCS-NH2 (disulfide 1-35, 17-48) [Compound C291]
- % Uptake of C4 [8]: 30%

Compound: {Biotin-PEG4}-CAREKIAALSEIIWLPCLTYAQI[Lys(Me2)]AFIAALNDDPCQSSEILSEAKELCS-NH2 (disulfide 1-35, 17-48) [Compound C275]
- % Uptake of C4 [8]: 3%
- Tm (° C.) [2]: ~≥75 °C

— patent US12691186B2, “B7-H3 miniproteins, conjugates, and uses thereof” (priority 2023, dated 2026)
